The source of these data is US20220071971A1, “MACROCYCLIC COMPOUNDS AND THEIR USE IN THE TREATMENT OF DISEASE” (NOVARTIS AG, priority 2018, published 2022).

As usually defined, the EC50 is the concentration needed to bring the measured effect to its halfway point.

The target of series [1] is T1, delF508-CFTR (Homo sapiens, UniProt P13569, DEL508-508).
T1 construct: expressed in transfected cells
As to the kind of experiment: Measurement of delF508-CFTR-HRP surface expression in CFBE41o- cells. The class given is cell-based. Conditions: for EC50: HRP-tagged delF508-CFTR surface expression, CFBE41o- cells, 24 h with compound, 10-point curve, highest concentration 10 μM; for Emax: CFBE41o-, read-out: DelF508-CFTR-HRP Amax %. In short, it runs like this: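 CFBE41o- cells stably expressing delF508-CFTR with HRP in the fourth extracellular loop, induced 48 h with 500 ng/mL doxycycline, then exposed to compound (10-point, 3-fold, top 10 μM, ≤0.5% DMSO) for 24 h at 37° C. Surface HRP read by luminescence with cell-impermeant substrate; EC50 by logistic fit, triplicates, efficacy relative to reference corrector.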

Series [2] concerns the target T1, delF508-CFTR. As to the kind of experiment: Measurement of delF508-CFTR functional activity in primary human bronchial epithelial cells (HBECs) using MTECC-24 assay. It counts as cell-based. Conditions: for EC50: primary human delF508-CFTR bronchial epithelial cells, 24 hr compound treatment, equivalent short circuit current, forskolin and potentiator, mean of at least two replicates, read-out: MTECC24 CFHBEC EC50; for MTECC24 CFHBEC Amax %: test compound (24 h) with potentiator (S)-3-amino-6-methoxy-N-(3,3,3-trifluoro-2-hydroxy-2-methylpropyl)-5-(trifluoromethyl)picolinamide, relative to 2 μM 3-(6-(1-(2,2-difluorobenzo[d][1,3]dioxol-5-yl)cyclopropane-1-carboxamido)-3-methylpyridin-2-yl)benzoic acid plus 0.5 μM N-(2,4-di-tert-butyl-5-hydroxyphenyl)-4-oxo-1,4-dihydroquinoline-3-carboxamide. The source says:
Measurement of delF508-CFTR Functional Activity in Primary Human Bronchial Epithelial Cells (HBECs) Using Multi-Transepithelial Clamp Circuit (MTECC-24) Assay
This assay measures the functional activity of the CFTR channel (Chloride ion transport) in patient derived primary human bronchial epithilial cells with forskolin activation and in the presence of the CFTR corrector/potentiator combination.
Primary human delF508-CFTR bronchial epithelial cells were and cultured according to previously established methods (Neuberger, T. et, al., Methods in Molecular Biology, 2011, 741, pp 39-54). Briefly, before thawing the HBEC cells, T25 flasks were coated with 2 mL of 3T3 conditioned media (MTI-GlobalStem, Cat #GSM9100) for at least 12 hours in 37° C. CO2 incubator. 1.7×10^5 cells were seeded into one T25 flask with 5 mL of HBE growth media (BEBM with supplements (Lonza, Cat #CC-3170) with 10 nM of retinoic acid (Sigma, Cat #R-2625) and 1% of PSA (Hyclone, Cat #SV30079.01). Media was changed every day till the cells were 100% confluent. Cells were seeded into T75 flasks (pre-coated with 5 mL of 3T3 conditioned media for more than 12 hrs) at 4.95×10^5 cells/T75 flask in 15 mL of HBE growth media. Flasks were fed everyday with fresh HBE growth media until the cells were confluent. 24-well transwell plates (Corning, Cat #3378) were coated with 3T3 conditioned media (70 μL on top of the filter, 350 μL to the bottom of the well) overnight in the 37° C. CO2 incubator. Cells were seeded in the pre-coated 24-well transwell plates at 1.7×10^5 cell/well with 700 μL of growth media at the bottom of the well and 200 μL of growth media at the top of the filter. After 24 hrs, cells were switched into HBE differentiation media ((DMEM/F12 (Gibco, Cat #11330-032) supplement with 2% Ultroser G (Pall, Cat #15950-017), 2% of Fetal Clone II (Hyclone, Cat #SH30066.03), 0.25% Bovine Brain Extract (Lonza, Cat #CC-4098), 1% of PSA, 2.5 μg/mL of Insulin (Sigma, Cat #19278), 20 nM of Hydrocortisone (Sigma, Cat #H0888), 500 nM of Triiodothyronine (Sigma, Cat #T6397), 2.5 μg/mL of Transferrin (Sigma, Cat #T8158), 250 nM of Ethanolamine (Sigma, Cat #E0135), 1.5 μM of Epinephrine (Sigma, Cat #E4250), 250 nM of Phosphoethanolamine (Sigma, Cat #P0503), 10 nM of retinoic acid)) with 200 μL on top of the filter (apical side) and 700 μL at the bottom of the well (basolateral side). Cells were fed every other day with the differentiation media. After 4 days, cells were exposed to air/liquid interface. Then cells were fed every other day for 4 weeks before fully differentiated.
Cells were washed with 3 mM DTT in PBS at 70 ul/well for 30 min at 37° C. 6 days before the assay. 3 days before the assay, cells were washed again with PBS at 70 ul/well for 30 min at 37° C. Then cells were treated with compound for 24 hrs before the assay.
Following 24 hr treatment with compound, cells were transferred into plates containing 750 ul of assay media on basolateral side and 250 ul on apical side (Assay medium: F-12 Coon's modified, 20 mM HEPES pH7.4 with TRIS Base, No FCS or bicarbonate). The plates wee then transferred to the heated plate compartments (basolateral buffer temperature ˜36.5° C. on the heating block) of the TECC24 system for 45 mins prior to measurements.
Modulators were added sequentially as follows while the TECC24 instrument recorded the equivalent short circuit current (Ieq):
Prior to dilution into assay medium the stocks were as follows: Benzamil stock: 10 mM in DMSO
Forskolin Stock: 50 mM in DMSO
N-(2,4-di-tert-butyl-5-hydroxyphenyl)-1,4-dihydro-4-oxoquinoline-3-carboxamide: 50 mM in DMSO (S)-3-amino-6-methoxy-N-(3,3,3-trifluoro-2-hydroxy-2-methylpropyl)-5-(trifluoromethyl)picolinamide: 50 mM stock 100% DMSO Bumetanide stock: 20 mM in EtOH
The data was normalized using the median signal from wells treated with 0.1% DMSO as a baseline. Curve fitting and EC50 calculations were performed using the following equation: […]

[3] abbreviates: efficacy relative to reference compound 3-(6-(1-(2,2-difluorobenzo[d][1,3]dioxol-5-yl)cyclopropane-1-carboxamido)-3-methylpyridin-2-yl)benzoic acid.

Like-named read-outs stand apart in the source and are kept apart here.

T1 sequence (P13569 with tags, fused parts or gaps DEL508-508): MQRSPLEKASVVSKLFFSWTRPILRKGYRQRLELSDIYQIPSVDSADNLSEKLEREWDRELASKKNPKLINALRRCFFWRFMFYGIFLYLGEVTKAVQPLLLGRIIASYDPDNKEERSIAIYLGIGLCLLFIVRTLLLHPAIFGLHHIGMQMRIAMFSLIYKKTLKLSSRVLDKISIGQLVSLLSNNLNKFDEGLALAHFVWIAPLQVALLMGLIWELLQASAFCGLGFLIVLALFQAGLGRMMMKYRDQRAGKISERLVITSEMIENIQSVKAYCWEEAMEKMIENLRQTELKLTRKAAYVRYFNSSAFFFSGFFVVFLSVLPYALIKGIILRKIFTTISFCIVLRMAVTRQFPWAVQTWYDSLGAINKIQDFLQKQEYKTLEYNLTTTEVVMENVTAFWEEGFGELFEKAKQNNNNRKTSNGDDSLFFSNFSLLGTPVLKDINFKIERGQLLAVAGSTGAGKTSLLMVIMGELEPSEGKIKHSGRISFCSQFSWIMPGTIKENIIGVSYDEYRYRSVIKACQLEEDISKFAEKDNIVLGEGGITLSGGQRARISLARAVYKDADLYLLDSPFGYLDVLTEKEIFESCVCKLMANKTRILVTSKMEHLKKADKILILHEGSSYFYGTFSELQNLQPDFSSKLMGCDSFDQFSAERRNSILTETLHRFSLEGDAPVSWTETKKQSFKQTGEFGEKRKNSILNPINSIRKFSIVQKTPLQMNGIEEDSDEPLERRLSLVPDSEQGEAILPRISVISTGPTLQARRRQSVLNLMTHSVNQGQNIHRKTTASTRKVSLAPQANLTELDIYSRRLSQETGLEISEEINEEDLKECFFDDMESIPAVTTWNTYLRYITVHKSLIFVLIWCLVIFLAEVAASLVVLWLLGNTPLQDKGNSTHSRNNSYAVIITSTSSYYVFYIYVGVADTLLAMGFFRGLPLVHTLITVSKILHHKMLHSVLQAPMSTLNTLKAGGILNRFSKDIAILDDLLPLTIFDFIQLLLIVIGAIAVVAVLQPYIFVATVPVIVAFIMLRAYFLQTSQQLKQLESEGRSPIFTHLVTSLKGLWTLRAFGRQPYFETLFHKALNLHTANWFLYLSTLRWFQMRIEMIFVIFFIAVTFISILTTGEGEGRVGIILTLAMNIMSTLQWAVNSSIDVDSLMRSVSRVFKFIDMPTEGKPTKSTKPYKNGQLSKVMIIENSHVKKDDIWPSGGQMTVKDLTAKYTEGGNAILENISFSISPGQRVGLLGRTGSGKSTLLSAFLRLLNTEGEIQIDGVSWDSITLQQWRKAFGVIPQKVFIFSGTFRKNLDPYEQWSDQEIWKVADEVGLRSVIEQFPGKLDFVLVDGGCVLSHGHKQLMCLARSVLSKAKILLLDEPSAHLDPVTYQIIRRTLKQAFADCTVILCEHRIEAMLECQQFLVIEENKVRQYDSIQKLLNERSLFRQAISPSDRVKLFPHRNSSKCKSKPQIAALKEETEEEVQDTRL

Regarding `O=S1(=O)Nc2ccc(C(F)(F)F)c(n2)-c2ccccc2C=CCCCCN(CCCCCO)c2cccc1n2`, the ring closure, isolated yield (from C=CCCCCN(CCCCCO)c1cccc(S(=O)(=O)Nc2ccc(C(F)(F)F)c(-c3ccccc3C=C)n2)n1, rcm bond, 17-membered ring, Grubbs II (20 mol%), DCM (or DCE), 1.85 mM, 55.0 °C) was found to be 94%.
With `O=S1(=O)Nc2ccc(C(F)(F)F)c(n2)-c2ccccc2CCCCCN(CCO)c2cccc1n2` [Compound 117, 6-(2-hydroxyethyl)-2^3-(trifluoromethyl)-4-thia-3,6-diaza-2,5(2,6)-dipyridina-1(1,2)-benzenacycloundecaphane 4,4-dioxide], the EC50 turned out to be 391 nM at delF508-CFTR [1] and 1 nM on delF508-CFTR [2]. The “MTECC24 CFHBEC Amax %” value at delF508-CFTR [2] turned out to be 213.1%.
Regarding `O=S1(=O)Nc2ccc(C(F)(F)F)c(n2)-c2ccccc2C=CCCN(CCO)c2cccc1n2`, for the setting “from C=CCCN(CCO)c1cccc(S(=O)(=O)Nc2ccc(C(F)(F)F)c(-c3ccccc3C=C)n2)n1, rcm bond, 15-membered ring, Grubbs II (two portions), DCM, 2.1 mM, 45.0 °C”, the ring closure, isolated yield was 91%.
On to `O=C(O)CCN1CCCCCc2ccccc2-c2nc(ccc2C(F)(F)F)NS(=O)(=O)c2cccc1n2` [Compound 92, 3-(4,4-dioxido-2^3-(trifluoromethyl)-4-thia-3,6-diaza-2,5(2,6)-dipyridina-1(1,2)-benzenacycloundecaphane-6-yl)propanoic acid], for which the Emax on delF508-CFTR [1] (setting [3]) is 982%. For the same molecule, the concentration giving a half-maximal response (EC50) on delF508-CFTR [1] stood at 694 nM; on delF508-CFTR [2], 6.9 nM. Further, the “MTECC24 CFHBEC Amax %” value on delF508-CFTR [2] is 90.0%.
With `CC(C)(CN1CCCCCc2ccccc2-c2nc(ccc2C(F)(F)F)NS(=O)(=O)c2cccc1n2)C(=O)O` [Compound 100, 3-(4,4-dioxido-2^3-(trifluoromethyl)-4-thia-3,6-diaza-2,5(2,6)-dipyridina-1(1,2)-benzenacycloundecaphane-6-yl)-2,2-dimethylpropanoic acid], the EC50 at delF508-CFTR [1] turned out to be 351 nM. Moreover, at delF508-CFTR [2], the EC50 is 4.3 nM and the “MTECC24 CFHBEC Amax %” value amounted to 175.8%.
For the molecule `CC(C)(CO)CN1CCCCCCc2ccccc2-c2nc(ccc2C(F)(F)F)NS(=O)(=O)c2cccc1n2` [Compound 28, 6-(3-hydroxy-2,2-dimethylpropyl)-2^3-(trifluoromethyl)-4-thia-3,6-diaza-2,5(2,6)-dipyridina-1(1,2)-benzenacyclododecaphane 4,4-dioxide], the EC50 at delF508-CFTR [1] was determined as 66 nM. Besides, on delF508-CFTR [2], the concentration for a half-maximal effect (EC50) worked out at 0.9 nM and the “MTECC24 CFHBEC Amax %” value came out at 171.1%.
`O=S1(=O)Nc2ccc(C(F)(F)F)c(n2)-c2ccccc2C=CCCC(CCCO)Oc2cccc1n2` (stereo not drawn) yielded a ring closure, isolated yield (from C=CCCC(CCCO)Oc1cccc(S(=O)(=O)Nc2ccc(C(F)(F)F)c(-c3ccccc3C=C)n2)n1, rcm bond, 16-membered ring, Grubbs II (10 mol%), DCM, 3.68 mM, 45.0 °C) of 95%.
“tert-butyl 4-(4,4-dioxido-2^3-(trifluoromethyl)-10-oxa-4-thia-3,6-diaza-2,5(2,6)-dipyridina-1(1,2)-benzenacycloundecaphane-6-yl)butanoate” showed a ring closure, isolated yield (snar bond, 16-membered ring, DIEA, NMP, 40.0 mM, 135.0 °C) of 75%.
For the molecule “3-(4,4-dioxido-2^3-(trifluoromethyl)-9-oxa-4-thia-3,6-diaza-2,5(2,6)-dipyridina-1(1,2)-benzenacyclododecaphane-6-yl)propanoic acid [Compound 98]”, the EC50 on delF508-CFTR [1] amounted to 2030 nM; on delF508-CFTR [2], 100 nM. Further, the “DelF508-CFTR-HRP Amax %” value on delF508-CFTR [1] (setting [3]) is 719.0%. Besides, the “MTECC24 CFHBEC Amax %” value on delF508-CFTR [2] turned out to be 69.2%.
On to `CC(C)(CO)CN1CCCCCc2ccccc2-c2nc(ccc2C(F)(F)F)NS(=O)(=O)c2cccc1n2` [Compound 27, 6-(3-hydroxy-2,2-dimethylpropyl)-2^3-(trifluoromethyl)-4-thia-3,6-diaza-2,5(2,6)-dipyridina-1(1,2)-benzenacycloundecaphane 4,4-dioxide], for which the Emax at delF508-CFTR [1] (setting [3]) stood at 829%. Moreover, the EC50 at delF508-CFTR [1] is 177 nM; at delF508-CFTR [2] it was 3.1 nM. The “MTECC24 CFHBEC Amax %” value on delF508-CFTR [2] turned out to be 132.0%.
On the same counts, the results for `O=C(O)CCCN1CCCCc2ccccc2-c2nc(ccc2C(F)(F)F)NS(=O)(=O)c2cccc1n2` [Compound 90, 4-(4,4-dioxido-2^3-(trifluoromethyl)-4-thia-3,6-diaza-2,5(2,6)-dipyridina-1(1,2)-benzenacyclodecaphane-6-yl)butanoic acid] are 674%, 919 nM, 4.6 nM and 123.2%.
For `O=C(O)CCN1CCCCCc2ccccc2-c2nc(ccc2Cl)NS(=O)(=O)c2cccc1n2` [Compound 89, 3-(2^3-chloro-4,4-dioxido-4-thia-3,6-diaza-2,5(2,6)-dipyridina-1(1,2)-benzenacycloundecaphane-6-yl)propanoic acid], in that order: 858%, 1180 nM, 30.9 nM and 56.7%.
In the case of `CC(C)(CN1CCCCCCc2ccccc2-c2nc(ccc2C(F)(F)F)NS(=O)(=O)c2cccc1n2)C(=O)O` [Compound 99, 3-(4,4-dioxido-2^3-(trifluoromethyl)-4-thia-3,6-diaza-2,5(2,6)-dipyridina-1(1,2)-benzenacyclododecaphane-6-yl)-2,2-dimethylpropanoic acid], the EC50 on delF508-CFTR [1] came to 230 nM. Besides, at delF508-CFTR [2], the concentration for a half-maximal effect (EC50) worked out at 0.8 nM and the “MTECC24 CFHBEC Amax %” value was 279.3%.
